Results from patent US9486472B2, “Methods for modulating neuronal responses” (UNIVERSITY OF BRITISH COLUMBIA CANADA, priority 2003, dated 2016).
No end group written: not given here.

What was measured:
[1] = test system: AMPAR; test: Quantification of AMPAR endocytosis in response to NMDA treatment (cellular ELISA), cortical neurons; type: cell-based, Wistar rat; details: 50 μM NMDA + 10 μM glycine 30 min; peptide 1 μM, 60 min pretreatment; control 69%
Method: The cortex was dissected from 18 days in utero Wistar embryos and was treated with trypsin-EDTA for 15 min at 37° C. The cells were then washed 3 times and triturated to a single cell suspension. The neurons with glia were then seeded at a density of ˜2.5×10^5 neurons/well in 12 well tissue culture plates coated with poly-D lysine. The cells were then cultured for 24-48 h in plating media (Gibco Neurobasal™, 1% FBS, 2% B-27 supplement, 0.5 mM […], and 25 μM glutamic acid), after which the cells were treated with Neurobasal™ maintenance media (NMM: Gibco Neurobasal™ Media+0.5 mM […], 2% B-27 supplement) with 10 μM 5-Fluoro-2′-deoxyuridine (FDU) to enrich the culture for neurons (−85%). After 24 h-48 h culture in FDU, the cells were maintained on NMM changed every 4 days.
Using cellular ELISA, the amount of intracellular versus extracellular AMPAR expression was measured allowing quantification of AMPAR endocytosis in response to NMDA insult. DIV 12-13 neurons were washed once with room temperature ECS. […] The absorbance at 492 nm was read using a μQuant plate reader (Bio-Tek Instruments Inc.). The data were analyzed by first subtracting the absorbance values for the no-primary controls from the other samples. The percentage AMPAR surface expression was then expressed as a ratio of the non-permeabilized samples to the permeabilized samples. […]

[2] = test system: rats; details: IV 60 min prior to test session; versus saline
Method: A. Rats maintained on a restricted feeding schedule were trained to lever-press for food pellets (45 mg) on a fixed-ratio 2 (FR2) schedule during 2-hour test sessions. Rats received IV injections of saline, GluR2-3A, or GluR2-3Y, in a counterbalanced order, 60 min prior to the test session. […] B. Rats were first trained to self-administer d-amphetamine (0.2 mg/infusion) via a jugular catheter on an FR2 schedule of reinforcement. Once responding in the 3 hour test sessions had stabilized, the rats were then trained on a Progressive Ratio Schedule in which successively more responses were required to obtain each successive reinforcement. […] Once stable Break point values were established, rats received IV injections of saline, GluR2-3A, or GluR2-3Y, in a counterbalanced order, 60 min prior to the test session.

[3] = test system: Sprague-Dawley rats; test: Transient focal ischemia model (MCA occlusion), TUNEL staining and neurological exam; type: in vivo, rat; details: 10 min prior to MCA occlusion; 3 nmoles/g
Method: The procedure was performed essentially as described previously (70). Briefly, adult male Sprague-Dawley rats between 280 and 320 g (20 h fasted weight) were anesthetized with an inhaled mixture of 4% isofluorane, in 30% oxygen balanced nitrous oxide, and maintained on 1.5% isofluorane. Bronchial secretions were minimized by administering 0.5 mg/kg of atropine intraperitoneally. […] The experimenter was blinded to the identity of the treatment groups for all surgeries and down-stream experiments. Under a dissection microscope, the common carotid artery (CCA), external carotid artery (ECA), and internal carotid artery (ICA) were exposed and dissected. […] Rectal temperature, and blood pressure measured with a tail cuff were measured before treatment, 15 min post injection, 50 min post injection, and 15 min post MCA occlusion. The plasma pH, O2, and CO2 were measured with a Rapidlab™ 348 blood gas analyzer (Bayer Diagnostics) in some animals to ensure that the gas flow rates used were appropriate and yielded reproducible blood gases. […]
At day 1 post MCAo rats were anesthetized with 1.5 mL of 25% urethane and were perfused with 100 mL of 0.9% saline followed by 120 mLs of 4% paraformaldehyde in PBS. […] The slices were scored for number of cells that stained positive for TMR-TUNEL per field of view at 10× magnification. […]

[4] = test system: rats; test: Behavioural sensitization to d-amphetamine (stereotypy scores); type: in vivo, rat; details: one hour intravenous pre-treatment
Method: To induces behaviour sensitization to addictive drugs that lead to substance abuse, four separate groups of adult rats were given repetitive injections of damphetamine (2 mg/kg, intraperitoneally (IP)) or saline, every other day for a total of 10 injections. On days 1, 5 and 10 of the injection regimen, the rats were placed in 2-level locomotor boxes for 30 min before the amphetamine injection to habituate to the boxes, and for an additional 2 hours following the injection, and stereotypy scores (drug-induced behaviours) were assessed at 1 minute intervals every 10 minutes for the duration of the 2 hour session. After the 10th injection of d-amphetamine, the rats were given 21 days off, and chronically indwelling catheters were implanted into the jugular vein under anaesthesia.
On day 21, the rats were pretreated with 1.5 nM/grTat-GluR2-3Y, or Tat-GluR2-3A or saline by either IV injection, or intracranial microinjection into the nucleus accumbens (Nac), and returned to their home cages for 60 min. The rats were then placed in the locomotor boxes (observation chambers) for 30 min and then treated with a challenge dose of d-amphetamine (2 mg/kg, IP). Stereotypy scores were then assessed as described (FIG. 12A), Points represent mean stereotypy scores (±S.E.M) for groups of rats over the 2 hour test session. […]

[5] = Dose tolerance to serial doses, vital parameters monitored; type: in vivo, Sprague-Dawley rats
Method: FIG. 15. Dose tolerance curve to serial doses of Tat-GluR2-3Y. Two adult male Sprague-Dawley rats were given serial doses of Tat-GluR2-3Y and the basic vital parameters were monitored.
In order to determine the maximum dose that could be administered without adverse reaction, two male Sprague Dawley rats were injected with serial doses of Tat-GluR2-3Y ranging from 0.5 nmoles/g to 30 nmoles/g and basic vital parameters were monitored. […] Assuming complete dispersion of the peptide in the animal, this dose corresponds roughly to a concentration of 3 μM.

Compound | AMPAR surface expression [1] [%] | Break Point measures for drug-reward [2] | total number of responses for food reward [2] | mean arterial blood pressure (MABP) versus saline [3] | side effects [4] | behaviour after revival from the dose response curve ([5]; both animals) | dose up to which the drug was tolerated ([5]; serial doses 0.5 to 30 nmoles/g, above: large decline in blood pressure, increase in breathing rate) [nmol/g] | doses evoking little response in the vital parameters monitored ([5]; serial doses, anesthetized rats)
CN[C@H](CC(=O)O)C(=O)O [NMDA, N-methyl-D-aspartate] | 55 | – | – | – | – | – | – | –
YGRKKRRQRRRYKEGYNVYGIE [Tat-GluR2-3Y, YGRKKRRQRRR-YKEGYNVYGIE] | – | no significant differences in the Break Point measures for drug-reward | no significant differences in total number of responses for food reward | significantly lower mean arterial blood pressure | without any notable side effects | showed no signs of mental depression or other behavioural changes | ~12 | up to 6 nmoles/g
